Results reported in patent US8852584B2, “Bactericide having selectivity to cariogenic bacterium, and a method for sterilization of cariogenic bacterium” (Two Cells Co., Ltd., priority 2005, dated 2014).

Tests used:
[1] = system: S. mutans PMZ175; assay: bacteriolytic effect, decrease in turbidity with time, various surfactants added to Aml; format: cell-based, Streptococcus mutans; details: Table 3
Procedure: (§1) The method for measuring the bacteriolytic effect adopted in the present invention is as follows.
(§2) The bacterial strain to be measured its bacteriolytic effect was cultivated overnight, it was washed by physiological saline then suspended into 0.1M phosphate buffer (pH 6.8) containing 0.1M NaCl and 0.1 mM CaCl2. The cell body was treated by ultrasonic generator to disperse the cell body. Thereafter, 500 μg/ml Aml solution dissolved into 30% ethyleneglycol-0.1M sodium phosphate buffer (pH 6.3) and 5 mg/ml surfactant dissolved into distilled water (40 μl) were added into a system consisting of 1 ml of bacterial suspension. 0.1M phosphate buffer solution and 0.1 mM calcium. It was incubated at 37° C., then the turbidity was measured with time, and the bacteriolytic effect was evaluated using the rate of decrease in turbidity as an index.
Using S. mutans PMZ175 (a cariogenic bacterium), the bacteriolytic effect was investigated using experimental systems in which various surfactants were added to Aml (FIG. 3, Table 3). Meanwhile, the food additives investigated in this experiment were glycyrrhizin (0.5%), saponin from quillaya (0.5%), S1670 (0.1%), S1570 (0.05%), P1670 (0.05%), saponin from soybean (0.05%), saponin from yucca (0.05%), and Triton X (0.05%).

[2] = system: Streptcoccus mutans 403R; assay: bacteriolytic effect, decrease in turbidity with time; format: cell-based, Streptococcus mutans; details: for percentage of turbidity (beginning = 100%): Table 1, Aml alone or Aml + 0.05% surfactant
Procedure: as §1, §2
Using Streptcoccus mutans 403R (dental caries causing bacterium), the bacteriolytic effect was measured with time using an experimental system of Aml alone, and an experimental system of Aml added with P1670 or S1570 at the concentration of 0.05% (Table 1, FIG. 1). In table 1 and FIG. 1, the turbidity of the bacterial solution at the beginning of the experiment was indicated as 100%, and the bacteriolytic effect was represented by the percentage of turbidity at each time point. […] By the way, the control indicates a system in which only a cariogenic bacterium was cultivated.
Using Streptcoccus mutans 403R, the bacteriolytic effect was measured with time on systems in which P1670 or S1570 was added into Aml at various final concentrations (0.05%, 0.025%, 0.001%) (Table 2, FIG. 2).

CC(C)(C)CC(C)(C)c1ccc(OCCO)cc1 [Triton, Triton X]
percentage of turbidity (beginning = 100%) ([1]; Aml + 0.05% surfactant, Time 0): 100.0%
percentage of turbidity (beginning = 100%) ([1]; Aml + 0.05% surfactant, Time 0.25): 93.8%
percentage of turbidity (beginning = 100%) ([1]; Aml + 0.05% surfactant, Time 0.5): 68.6%
percentage of turbidity (beginning = 100%) ([1]; Aml + 0.05% surfactant, Time 1): 10.3%
percentage of turbidity (beginning = 100%) ([1]; Aml + 0.05% surfactant, Time 1.5): −3.4%
percentage of turbidity (beginning = 100%) ([1]; Aml + 0.05% surfactant, Time 2.5): −6.6%
percentage of turbidity (beginning = 100%) ([1]; Aml + 0.05% surfactant, Time 3): −7.1%
percentage of turbidity (beginning = 100%) ([1]; Aml + 0.05% surfactant, Time 3.5): −7.7%
percentage of turbidity (beginning = 100%) ([1]; Aml + 0.05% surfactant, Time 4): −8.8%

CC1(C)[C@@H](O[C@H]2O[C@H](C(=O)O)[C@@H](O)[C@H](O)[C@H]2O[C@@H]2O[C@H](C(=O)O)[C@@H](O)[C@H](O)[C@H]2O)CC[C@]2(C)[C@H]3C(=O)C=C4[C@@H]5C[C@@](C)(C(=O)O)CC[C@]5(C)CC[C@@]4(C)[C@]3(C)CC[C@@H]12 [Glycyrrhizin, glycyrrhizin]
percentage of turbidity (beginning = 100%) ([1]; Aml + 0.5% surfactant, Time 0): 100.0%
percentage of turbidity (beginning = 100%) ([1]; Aml + 0.5% surfactant, Time 0.25): 96.6%
percentage of turbidity (beginning = 100%) ([1]; Aml + 0.5% surfactant, Time 0.5): 93.6%
percentage of turbidity (beginning = 100%) ([1]; Aml + 0.5% surfactant, Time 1): 89.0%
percentage of turbidity (beginning = 100%) ([1]; Aml + 0.5% surfactant, Time 1.5): 81.3%
percentage of turbidity (beginning = 100%) ([1]; Aml + 0.5% surfactant, Time 2.5): 83.7%
percentage of turbidity (beginning = 100%) ([1]; Aml + 0.5% surfactant, Time 3): 80.3%
percentage of turbidity (beginning = 100%) ([1]; Aml + 0.5% surfactant, Time 3.5): 82.3%
percentage of turbidity (beginning = 100%) ([1]; Aml + 0.5% surfactant, Time 4): 77.4%

B1: automutanolysin (protein)
chain: MKSKTYLMIPLALTLFMAANKISADEQNQSLSASEVISSDATSVSELPATTAQISQEVRNNGQDSTIQLQQTQEQSDPITSTSETTVSSMKAATNGSPAKANETETVPSQASTASSVQTPDQILTVPSVKAETTSTADQLQSTSSAPLDQQTDAKRLSNKMTPASSVQARSSLTQDKQVQAQEVTSAVVEEKGIKLQYNGQIARNTKIQFAVWSARNDQDDLQWYTANNMGAAYAEFKNHREYGTYYVHTYANQNGKMIGLNATTLTIAQPQVQTNIQRKSATNFELTVSNVPNTISGIMVPVWSDQNGQDDIKWYNARKADDGSYKVLIDTKNHKNDLGHYEAHIYGYSTVTQSQIGLAVSSGFDRNDTRPNARISVANYDQNKTTFDVVVEGSSDTKTVSAVNIAVWSEDKGQDDLKWYSPKIVDNKATVTINIANHSNTSDKYNVHVYTDYTDGTHSGTILGAYQINKPLEKNTVSADLTSDGIALKLDSNTVTDYTKVRFAVWSDQNGQDDLKWYSANSDGTATAAYSNHSGYGLYHIHTYIIKDGKMVGLNGKTITINQPSAKVDIAKESDALYKVTVSNLPAYISSVVIPVWTDKNNQDDIQWIPATKQGDGTYAAQIQLADHNGETGHYNVHVYGQSKFDNKAVGLAATDGFNVAETRNAVIAASNYNASAGTIDMIVKQEAGGKAIKEVRIAAWSEADQSNLHWYVSSTIIDGKVTVTINEKNHQYIKGNYNIHVYVDYTDGTSSGTNIGNYSLNADKPAVALPSYFIDISSHNGIISVAEFNSLKQQGIQGVVVKLTEGTSYINPYASSQIANARAAGIKVSAYHYAHYTSAAGAQEEARYFANAARSFGLEASTVMVNDMEESSMVNNINNNVQAWQDEMRRQGYSNLIHYTMASWLDIRGGQVDTARFGINNFWVAHYAKGYTYMTQEEAKSLNYYANAAAWQYTSVSSKLSHALDENIDYTGRFTQQ
modifications: Streptococcus mutans
notes: bacterial cell wall lytic enzyme from Streptococcus mutans specific to cariogenic bacterium
percentage of turbidity (beginning = 100%) ([2]; Time 0): 100.0%
percentage of turbidity (beginning = 100%) ([2]; Time 0.25): 93.3%
percentage of turbidity (beginning = 100%) ([2]; Time 0.5): 81.5%
percentage of turbidity (beginning = 100%) ([2]; Time 1): 62.6%
percentage of turbidity (beginning = 100%) ([2]; Time 1.5): 50.8%
percentage of turbidity (beginning = 100%) ([2]; Time 2): 42.2%
percentage of turbidity (beginning = 100%) ([2]; Time 4): 24.6%
time required for the bacteriolysis of 50% of living bacterium (ED50) ([2]; summary, Aml alone): 1.5 h
